The text below walks through data of patent US8445539B2, “Alpha-aminoamide derivatives useful in the treatment of psychiatric disorders” (priority 2007, dated 2013).

In the test the test system is MK-801-induced PPI disruption. Description: Prepulse inhibition of startle with disruption by MK-801. It counts as in vivo, Wistar rats. The settings on record: pretreatment vehicle, treatment MK-801 0.2 mg/kg i.p., mean ± SEM. The text has this: Prepulse inhibition (PPI) is a cross-species phenomenon (i.e., it is present in mammals ranging from mice to humans), yet it is relatively impaired among schizophrenic patients. The PPI procedure is used to assess the subject's ability to “gate” or filter environmental information. In the acoustic (startle model) of sensorimotor gating a weak acoustic stimulus (prepulse) decrease the reflexive flinching response (startle) produced by a second, more intense, stimulus (the pulse). Drugs like dizocilpine (MK-801) or amphetamine disrupt PPI and represent an animal model of schizophrenia; antipsychotic drugs are able to prevent PPI deficit. The test is quite useful to screen potential antipsychotic drugs.
Methods: Male Wistar rats, weighing 200-300 g were used. Apparatus: All startle and PPI testing has been performed in four startle chambers. Each ventilated illuminated and sound proof chamber contained a clear non-restrictive Plexiglas cylinder resting on a platform. A high-frequency loudspeaker inside the chamber produced both a continuous background noise of 70 dB and the various acoustic stimuli. Vibrations of the Plexiglas cylinder caused by the whole-body startle response of the animal were transduced into analogue signals by a piezoelectric unit attached to the platform. These signals were then digitized and stored by a computer. Sixty-five readings were taken at 1-ms intervals starting at stimulus onset, and the average amplitude was used to determine the acoustic startle response. Sound levels is given in dB.
Prepulse inhibition session: After 5 min of habituation (background white noise, 70 dB), two types of acoustic stimuli were used: acoustic stimulus alone (120 dB, 40 ms) or the stimulus proceeded by a prepulse (76, 79, 82 dB, 40 ms) applied 100 ms before the stimulus. During each experimental session 20 trials of each type were presented with interstimulus interval of 20 s. The amplitudes were averaged for each individual animal, separately for both types of trials (stimulus alone or stimulus preceded by the prepulse). The degree of prepulse inhibition was shown as a percentage score (% PPI) calculated as […] a difference between the amplitude of the pulse-alone (P) and the amplitude of the prepulse+pulse trials (PP+P), divided by the amplitude of the pulse-alone trials and multiplied by 100. […] Substances and treatments: MK-801 0.2 mg/kg was dissolved in saline and was given i.p. In each experiment, […] were assigned to receive either compounds of the disclosure or vehicle and were tested in the PPI session using a between-subjects design. The order of drug treatment for the first experiment was test-compound, followed by MK-801; for the second experiment rats received test-compound and then amphetamine. Statistical Analysis: Multiple ANOVA was conducted followed by Dunnett's post hoc test.

For `C[C@]12N[C@H](Cc3ccccc31)c1ccccc12` [MK-801, reference compound], the Percentage of inhibition (% PPI) came out at 9.07 ± 0.81 %. In addition, where the note is “startle amplitude”, the Acoustic tone alone is reported as 40.50 ± 1.96 and the “Startle amplitude on prepulse + pulse trials” value was found to be 37.00 ± 2.11.
